# What was measured:
# MAGL = MAGL (Mus musculus (Mouse), UniProt O35678); test: In vitro competitive activity-based protein profiling, MAGL (mouse); assay type: biochemical; conditions: for inhibition at 1 µM: read-out: MAGL % inh. 1 μM (mouse)
# How it was run: (§1)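 Mouse brain membrane fraction or cell lysates (mouse assays) and human prefrontal cortex or cell membrane fractions (human assays), 1.0 mg/mL protein, were preincubated with varying inhibitor concentrations for 30 min at 37° C. FP-Rh or HT-01 probe (50 μM stock in DMSO) was then added for another 30 min at 37° C.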
# FAAH = FAAH (Mus musculus (Mouse), UniProt O08914); test: In vitro competitive activity-based protein profiling, FAAH (mouse); assay type: biochemical; conditions: for inhibition at 1 µM: read-out: FAAH % inh. 1 μM (mouse)
# FAAH, sequence (O08914 whole entry): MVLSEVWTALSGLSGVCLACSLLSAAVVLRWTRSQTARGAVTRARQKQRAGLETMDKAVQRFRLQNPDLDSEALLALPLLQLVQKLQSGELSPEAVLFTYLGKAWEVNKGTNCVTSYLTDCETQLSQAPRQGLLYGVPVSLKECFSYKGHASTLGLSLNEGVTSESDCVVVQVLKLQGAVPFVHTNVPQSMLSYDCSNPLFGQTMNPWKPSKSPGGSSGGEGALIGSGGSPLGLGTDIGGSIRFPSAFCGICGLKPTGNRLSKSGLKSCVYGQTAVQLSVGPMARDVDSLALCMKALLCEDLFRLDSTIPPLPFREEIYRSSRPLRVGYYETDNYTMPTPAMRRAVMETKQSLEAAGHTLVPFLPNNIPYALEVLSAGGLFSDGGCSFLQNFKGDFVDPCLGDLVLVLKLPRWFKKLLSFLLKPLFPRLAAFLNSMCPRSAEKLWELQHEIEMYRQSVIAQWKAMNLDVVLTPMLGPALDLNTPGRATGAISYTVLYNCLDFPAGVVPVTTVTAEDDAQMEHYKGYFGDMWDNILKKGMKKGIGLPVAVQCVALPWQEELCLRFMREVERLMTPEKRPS
# How it was run: as §1
# MAGL, sequence (O35678 whole entry): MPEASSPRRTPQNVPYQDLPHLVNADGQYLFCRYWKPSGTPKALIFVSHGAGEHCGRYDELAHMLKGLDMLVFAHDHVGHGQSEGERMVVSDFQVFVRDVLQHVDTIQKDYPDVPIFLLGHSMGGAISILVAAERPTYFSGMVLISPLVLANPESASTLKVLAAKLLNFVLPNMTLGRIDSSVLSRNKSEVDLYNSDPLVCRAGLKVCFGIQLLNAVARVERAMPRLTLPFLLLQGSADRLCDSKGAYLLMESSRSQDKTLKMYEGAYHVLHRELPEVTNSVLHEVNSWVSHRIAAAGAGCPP
Structure (SMILES),inhibition at 1 µM (MAGL; 1 μM),inhibition at 1 µM (FAAH; 1 μM),IC50 (MAGL),IC50 (FAAH),MAGL % inh. 1 μM (mouse) (MAGL; 1 μM),FAAH % inh. 1 μM (mouse) (FAAH; 1 μM)
"CC(=O)Nc1cnn(C(=O)N2CCN(Cc3cc(Cl)ccc3C(F)(F)F)CC2)c1 [Example 314, N-(1-(4-(5-chloro-2-(trifluoromethyl)benzyl)piperazine-1-carbonyl)-1H-pyrazol-4-yl)acetamide]",≥ 75%,≥ 75%,–,–,–,–
"CC(=O)N(C)c1cnn(C(=O)N2CCC3(CCN(Cc4cccc(Cl)c4)C3)CC2)c1 [Example 187, N-(1-(2-(3-chlorobenzyl)-2,8-diazaspiro[4.5]decane-8-carbonyl)-1H-pyrazol-4-yl)-N-methylacetamide]",≥ 75%,≥ 75%,100 to 1000 nM,100 to 1000 nM,–,–
"CC(=O)N(C)c1cnn(C(=O)N2CCC3(CCN(Cc4ccc(C(F)(F)F)c(N5CCOCC5)c4)C3)C2)c1 (centres unmarked) [Example 61, N-methyl-N-(1-(7-(3-morpholino-4-(trifluoromethyl)benzyl)-2,7-diazaspiro[4.4]nonane-2-carbonyl)-1H-pyrazol-4-yl)acetamide]",≥ 75%,≥ 75%,≤ 100 nM,≤ 100 nM,–,–
"COc1cc(-c2ccccc2)ccc1CN1CCN(C(=O)n2cc(NS(C)(=O)=O)cn2)CC1 [Example 220, N-(1-(4-((3-methoxy-[1,1′-biphenyl]-4-yl)methyl)piperazine-1-carbonyl)-1H-pyrazol-4-yl)methanesulfonamide]",≥ 75%,≥ 75%,100 to 1000 nM,≤ 100 nM,–,–
"CC(=O)N(C)c1cnn(C(=O)N2CCC3(CCN(Cc4cc(C(F)(F)F)ccc4N4CCCC4)C3)C2)c1 (centres unmarked) [Example 74, N-methyl-N-(1-(7-(2-(pyrrolidin-1-yl)-5-(trifluoromethyl)benzyl)-2,7-diazaspiro[4.4]nonane-2-carbonyl)-1H-pyrazol-4-yl)acetamide]",≥ 75%,50 to 75%,–,–,–,–
"CC(=O)N(C)c1cnn(C(=O)N2CC3(CCN(Cc4ccc(N5CCCC5)cc4)CC3)C2)c1 [Example 19, N-methyl-N-(1-(7-(4-(pyrrolidin-1-yl)benzyl)-2,7-diazaspiro[3.5]nonane-2-carbonyl)-1H-pyrazol-4-yl)acetamide]",50 to 75%,25 to 50%,–,–,–,–
"CC(=O)N(C)c1cnn(C(=O)N2CCC3(CCN(Cc4cc(N5CCOCC5)cc(C(F)(F)F)c4)C3)C2)c1 (centres unmarked) [Example 68, N-methyl-N-(1-(7-(3-morpholino-5-(trifluoromethyl)benzyl)-2,7-diazaspiro[4.4]nonane-2-carbonyl)-1H-pyrazol-4-yl)acetamide]",≥ 75%,≥ 75%,100 to 1000 nM,≤ 100 nM,–,–
"CS(=O)(=O)Nc1cnn(C(=O)N2CCC3(CCN(Cc4ccc(N5CCCC5)cc4C(F)(F)F)C3)CC2)c1 [Example 280, N-(1-(2-(4-(pyrrolidin-1-yl)-2-(trifluoromethyl)benzyl)-2,8-diazaspiro[4.5]decane-8-carbonyl)-1H-pyrazol-4-yl)methanesulfonamide]",≥ 75%,≥ 75%,–,–,–,–
"CC(=O)N(C)c1cnn(C(=O)N2CC3(CCN(Cc4ccc(CN5CCOCC5)cc4)CC3)C2)c1 [Example 230, N-methyl-N-(1-(7-(4-(morpholinomethyl)benzyl)-2,7-diazaspiro[3.5]nonane-2-carbonyl)-1H-pyrazol-4-yl)acetamide]",25 to 50%,0 to 25%,–,–,–,–
"CC(=O)N(C)c1cnn(C(=O)N2C[C@H]3C[C@H](N(C)Cc4ccc(N5C6CCC5COC6)c(C(F)(F)F)c4)C[C@H]3C2)c1 [Example 156, N-(1-(trans-5-((4-(3-oxa-8-azabicyclo[3.2.1]octan-8-yl)-3-(trifluoromethyl)benzyl)(methyl)amino)octahydrocyclopenta[c]pyrrole-2-carbonyl)-1H-pyrazol-4-yl)-N-methylacetamide]",≥ 75%,≥ 75%,100 to 1000 nM,≤ 100 nM,–,–
"CC(=O)N(C)c1cnn(C(=O)N2CCC3(CC2)CN(Cc2ccccc2C)C3)c1 [Example 42, N-methyl-N-(1-(2-(2-methylbenzyl)-2,7-diazaspiro[3.5]nonane-7-carbonyl)-1H-pyrazol-4-yl)acetamide]",≥ 75%,≥ 75%,–,–,–,–
"COc1ccccc1CN1CC2(CCN(C(=O)n3cc(N(C)C(C)=O)cn3)CC2)C1 [Example 43, N-(1-(2-(2-methoxybenzyl)-2,7-diazaspiro[3.5]nonane-7-carbonyl)-1H-pyrazol-4-yl)-N-methylacetamide]",≥ 75%,0 to 25%,–,–,–,–
CC(=O)Nc1cnn(C(=O)N2CCN(Cc3cc(N4CCCC4)cc(C(F)(F)F)c3)CC2)c1 [Example 227],–,–,100 to 1000 nM,100 to 1000 nM,A (A = % inhibition greater than or equal to 75%),B (B = % inhibition greater than or equal to 50% and less than 75%)
"CC(=O)N(C)c1cnn(C(=O)N2CCC3(CCN(Cc4c(Cl)cccc4Cl)C3)C2)c1 (centres unmarked) [Example 49, N-(1-(7-(2,6-dichlorobenzyl)-2,7-diazaspiro[4.4]nonane-2-carbonyl)-1H-pyrazol-4-yl)-N-methylacetamide]",≥ 75%,≥ 75%,100 to 1000 nM,100 to 1000 nM,–,–

# More lines, main results first:
inhibition at 1 µM (MAGL; 1 μM),inhibition at 1 µM (FAAH; 1 μM),IC50 (MAGL),IC50 (FAAH),Structure (SMILES),MAGL % inh. 1 μM (mouse) (MAGL; 1 μM),FAAH % inh. 1 μM (mouse) (FAAH; 1 μM)
≥ 75%,≥ 75%,–,–,"CC(=O)N(C)c1cnn(C(=O)N2C[C@H]3C[C@@H](N(C)Cc4ccc(N5CCCC5)c(C(F)(F)F)c4)C[C@H]3C2)c1 [Example 153, N-methyl-N-(1-(cis-5-(methyl(4-(pyrrolidin-1-yl)-3-(trifluoromethyl)benzyl)amino)octahydrocyclopenta[c]pyrrole-2-carbonyl)-1H-pyrazol-4-yl)acetamide]",–,–
≥ 75%,≥ 75%,–,–,"CC(=O)N(C)c1cnn(C(=O)N2CC3CN(Cc4ccc(Oc5nc6ccccc6s5)cc4C(F)(F)F)CC3C2)c1 (centres unmarked) [Example 254, N-(1-(5-(4-(benzo[d]thiazol-2-yloxy)-2-(trifluoromethyl)benzyl)octahydropyrrolo [3,4-c]pyrrole-2-carbonyl)-1H-pyrazol-4-yl)-N-methylacetamide]",–,–
0 to 25%,≥ 75%,1000 to 10000 nM,100 to 1000 nM,"CS(=O)(=O)Nc1cnn(C(=O)N2CC3CN(Cc4cccc(Cl)c4)CC3C2)c1 (centres unmarked) [Example 7, N-(1-(5-(3-chlorobenzyl)octahydropyrrolo[3,4-c]pyrrole-2-carbonyl)-1H-pyrazol-4-yl)methanesulfonamide]",–,–
≥ 75%,50 to 75%,–,–,"CC(=O)N(C)c1cnn(C(=O)N2CC3CN(Cc4cccc(N5CCOCC5)c4)CC3C2)c1 (centres unmarked) [Example 121, N-methyl-N-(1-(5-(3-morpholinobenzyl)octahydropyrrolo[3,4-c]pyrrole-2-carbonyl)-1H-pyrazol-4-yl)acetamide]",–,–
≥ 75%,50 to 75%,–,–,"CC(=O)N(C)c1cnn(C(=O)N2CC3CN(Cc4ccccc4N4CCCC4)CC3C2)c1 (centres unmarked) [Example 184, N-methyl-N-(1-(5-(2-(pyrrolidin-1-yl)benzyl)octahydropyrrolo[3,4-c]pyrrole-2-carbonyl)-1H-pyrazol-4-yl)acetamide]",–,–
25 to 50%,25 to 50%,–,–,"CC(=O)N(C)c1cnn(C(=O)N2CC3(CCN(Cc4cccc(C)c4)CC3)C2)c1 [Example 83, N-methyl-N-(1-(7-(3-methylbenzyl)-2,7-diazaspiro[3.5]nonane-2-carbonyl)-1H-pyrazol-4-yl)acetamide]",–,–
≥ 75%,≥ 75%,–,–,"CC(=O)N(C)c1cnn(C(=O)N2CC3CN(Cc4ccc(-c5cnccn5)cc4Cl)CC3C2)c1 (centres unmarked) [Example 266, N-(1-(5-(2-chloro-4-(pyrazin-2-yl)benzyl)octahydropyrrolo[3,4-c]pyrrole-2-carbonyl)-1H-pyrazol-4-yl)-N-methylacetamide]",–,–
≥ 75%,≥ 75%,100 to 1000 nM,≤ 100 nM,"CC(=O)N(C)c1cnn(C(=O)N2CC3CN(Cc4ccccc4C)CC3C2)c1 (centres unmarked) [Example 94, N-methyl-N-(1-(5-(2-methylbenzyl)octahydropyrrolo[3,4-c]pyrrole-2-carbonyl)-1H-pyrazol-4-yl)acetamide]",–,–
≥ 75%,≥ 75%,–,–,"CC(=O)N(C)c1cnn(C(=O)N2CC3CN(Cc4cc(Cl)ccc4C(F)(F)F)CC3C2)c1 (centres unmarked) [Example 104, N-(1-(5-(5-chloro-2-(trifluoromethyl)benzyl)octahydropyrrolo[3,4-c]pyrrole-2-carbonyl)-1H-pyrazol-4-yl)-N-methylacetamide]",–,–
≥ 75%,0 to 25%,1000 to 10000 nM,100 to 1000 nM,"CC(=O)N(C)c1cnn(C(=O)N2CC3CN(Cc4ccc(OCC(=O)N5CCCC5)cc4Cl)CC3C2)c1 (centres unmarked) [Example 189, N-(1-(5-(2-chloro-4-(2-oxo-2-(pyrrolidin-1-yl)ethoxy)benzyl)octahydropyrrolo[3,4-c]pyrrole-2-carbonyl)-1H-pyrazol-4-yl)-N-methylacetamide]",–,–
≥ 75%,≥ 75%,≤ 100 nM,≤ 100 nM,"CC(=O)N(C)c1cnn(C(=O)N2CC3CN(Cc4ccc5c(c4)OC(F)(F)O5)CC3C2)c1 (centres unmarked) [Example 242, N-(1-(5-((2,2-difluorobenzo[d][1,3]dioxol-5-yl)methyl)octahydropyrrolo[3,4-c]pyrrole-2-carbonyl)-1H-pyrazol-4-yl)-N-methylacetamide]",–,–
≥ 75%,≥ 75%,–,–,"CC(=O)N(C)c1cnn(C(=O)N2CC3CN(Cc4ccc(N5CC6CCC(C5)O6)cc4C(F)(F)F)CC3C2)c1 (centres unmarked) [Example 101, N-(1-(5-(4-(8-oxa-3-azabicyclo[3.2.1]octan-3-yl)-2-(trifluoromethyl)benzyl)octahydropyrrolo[3,4-c]pyrrole-2-carbonyl)-1H-pyrazol-4-yl)-N-methylacetamide]",–,–

# — patent US10323038B2, “Pyrazole compounds and methods of making and using same” (ABIDE THERAPEUTICS, INC., priority 2015, dated 2019)
